Test systems include HCC-2998 colon; NCI-H226 lung; SF-295 CNS; PC-3 prostate; LOX IMVI melanoma; OVCAR-3 ovarian; CCRF-CEM leukemia; RXF 393 renal; SN12C renal; MALME-3M melanoma.
What all share (assay): growth of human tumour cells (NCI), 48 h

Where “and” joins values, the source holds several entries; their conditions need not be identical. Identical values can stand only once.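 1) Cells in 96-well plates. 2) Compound, 48 h, 5 concentrations. 3) Linear interpolation between surrounding doses. 4) Unreached endpoint = highest concentration. GI50 is the concentration that inhibits growth by half. TGI marks complete inhibition of growth.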

Consider `COc1ccc2c(-c3ccc(OCCN(C)C)cc3)c(Oc3ccc(Cl)cc3)c(=O)oc2c1`, for which the TGI in the experiment on HCC-2998 colon is 9.63 µM; with NCI-H226 lung, more than 55.7 µM; in the experiment on SF-295 CNS it was 5.42 µM; in the experiment with PC-3 prostate, 19.7 µM; with LOX IMVI melanoma, 4.3 µM; in the experiment on OVCAR-3 ovarian, 21 µM. Further, the TGI in the experiment on CCRF-CEM leukemia is 23.1 µM; in the experiment with RXF 393 renal, 12.4 µM; in the experiment with SN12C renal, more than 53.3 µM; with MALME-3M melanoma, 3.48 µM.

With `ONC1=Nc2ccccc2OCc2cc(Br)c(Br)cc2COc2ccccc2N=C1NO`, the TGI in the experiment on HCC-2998 colon is 31.8 µM; in the experiment on NCI-H226 lung, more than 52.7 µM; in the experiment with SF-295 CNS, more than 53.6 µM; in the experiment with PC-3 prostate it was 31.3 µM; in the experiment with LOX IMVI melanoma it was 45.1 µM; in the experiment with OVCAR-3 ovarian it was more than 48.1 µM. In addition, the TGI in the experiment on CCRF-CEM leukemia was more than 34.1 µM; with RXF 393 renal it was 47.9 µM; in the experiment on SN12C renal it was 27.3 µM; in the experiment with MALME-3M melanoma, 42.1 µM.

With `CCOC(=O)C(NC(=O)CC)(Nc1ccc(S(=O)(=O)Nc2nc(C)cc(C)n2)cc1)C(F)(F)F` (stereo not given), the TGI in the experiment on HCC-2998 colon, in the experiment with NCI-H226 lung, in the experiment on SF-295 CNS, in the experiment on PC-3 prostate, with LOX IMVI melanoma and in the experiment on OVCAR-3 ovarian was more than 100 µM in each case. Moreover, the TGI with CCRF-CEM leukemia, in the experiment on RXF 393 renal, in the experiment with SN12C renal and with MALME-3M melanoma was more than 100 µM in each case.

Turning to `CCOC(=O)c1c(N2CCOCC2)[nH]c(=O)c(C(c2cccs2)c2c(O)c(C(=O)OCC)c(N3CCOCC3)[nH]c2=O)c1O`, the TGI in the experiment on HCC-2998 colon, in the experiment with NCI-H226 lung, with SF-295 CNS, in the experiment on PC-3 prostate, in the experiment on LOX IMVI melanoma and with OVCAR-3 ovarian was more than 100 µM in each case. Besides, the TGI in the experiment on CCRF-CEM leukemia, with RXF 393 renal, in the experiment with SN12C renal and in the experiment on MALME-3M melanoma was more than 100 µM throughout.

With `CC1(C)CCCCCCCCCC(C)(CCCCCCCCCCCCO)C1=O` (stereo not given), the TGI in the experiment with HCC-2998 colon stood at 13.7 µM; in the experiment on NCI-H226 lung, 22.5 µM; in the experiment with SF-295 CNS, 30.4 µM; in the experiment with PC-3 prostate it was 32.6 µM; in the experiment with LOX IMVI melanoma, 32.3 µM; in the experiment on OVCAR-3 ovarian, 29.4 µM. The TGI in the experiment with CCRF-CEM leukemia turned out to be 50.7 µM; in the experiment with RXF 393 renal, 33.3 µM; in the experiment with SN12C renal, 31.4 µM; in the experiment on MALME-3M melanoma, 30.6 µM.

As for `COP(=O)(OC)C(NC=O)P(=O)(OC)OC`, the TGI with HCC-2998 colon, with NCI-H226 lung, in the experiment with SF-295 CNS, in the experiment on PC-3 prostate, in the experiment on LOX IMVI melanoma and with OVCAR-3 ovarian was more than 100 µM each time. Further, the TGI with CCRF-CEM leukemia, with RXF 393 renal, with SN12C renal and in the experiment with MALME-3M melanoma was more than 100 µM in each case.

As for `C=C(Br)CNCC(=C)Br`, the TGI in the experiment on HCC-2998 colon, in the experiment with NCI-H226 lung, in the experiment with SF-295 CNS, in the experiment on PC-3 prostate, in the experiment on LOX IMVI melanoma and in the experiment with OVCAR-3 ovarian was more than 100 µM throughout. The TGI with CCRF-CEM leukemia, in the experiment with RXF 393 renal, in the experiment with SN12C renal and in the experiment on MALME-3M melanoma was more than 100 µM in each case.

`COc1nc(OC)nc(-c2cccc(F)c2)n1`: the TGI was found to be 28.2 µM in the experiment with HCC-2998 colon; 31.1 µM with NCI-H226 lung; 30 µM in the experiment on SF-295 CNS; 40.2 µM with PC-3 prostate; 43.7 µM in the experiment with LOX IMVI melanoma; 27.7 µM with OVCAR-3 ovarian. Besides, the TGI is more than 100 µM in the experiment on CCRF-CEM leukemia, 35 µM in the experiment with RXF 393 renal, 31.5 µM with SN12C renal and 31.2 µM in the experiment on MALME-3M melanoma.

As to `O=C1c2ccccc2-c2nc(-c3ccccc3)cc3c2c1nc1ccccc13`, the TGI worked out at 26.7 µM with HCC-2998 colon; 54.5 µM in the experiment on NCI-H226 lung; 27.6 µM in the experiment with SF-295 CNS; 32.3 µM in the experiment on PC-3 prostate; 10 µM with LOX IMVI melanoma; 2.43 µM in the experiment with OVCAR-3 ovarian. Moreover, the TGI in the experiment on CCRF-CEM leukemia was 28.2 µM; with RXF 393 renal, more than 100 µM; with SN12C renal it was 32.8 µM; in the experiment with MALME-3M melanoma it was 12.8 µM.

`O=[N+]([O-])c1ccc2c(Nc3ccccc3-c3ccccc3Nc3c4ccccc4nc4cc([N+](=O)[O-])ccc34)c3ccccc3nc2c1`: the TGI in the experiment with HCC-2998 colon worked out at 16.6 µM; in the experiment on NCI-H226 lung, 32.4 µM; in the experiment on SF-295 CNS it was 60.5 µM; with PC-3 prostate it was 6.61 µM; with LOX IMVI melanoma, 47.4 µM; in the experiment with OVCAR-3 ovarian, 29.1 µM. Moreover, the TGI was determined as 37.6 µM with CCRF-CEM leukemia, 17.4 µM in the experiment with RXF 393 renal, 58.1 µM in the experiment on SN12C renal and 50.2 µM in the experiment with MALME-3M melanoma.

Regarding `Cc1cc(O)ccc1C1(c2ccc(F)cc2)OC(=O)c2ccccc21` (stereo not given), the TGI in the experiment on HCC-2998 colon is 15.3 µM; in the experiment on NCI-H226 lung, 8.28 µM; in the experiment with SF-295 CNS, 14.2 µM; in the experiment on PC-3 prostate, 5.28 µM; with LOX IMVI melanoma, 6.65 µM; in the experiment on OVCAR-3 ovarian it was 0.882 µM. The TGI in the experiment on CCRF-CEM leukemia was more than 95.5 µM; with RXF 393 renal, 3.33 µM; in the experiment with SN12C renal it was 8.23 µM; in the experiment on MALME-3M melanoma, 26.8 µM.

Regarding `Cc1ccc(OCC2OC(n3cnc4c(Cl)ncnc43)CC2Oc2ccc(C)cc2)cc1` (stereo not given), the GI50 in the experiment on HCC-2998 colon was 5.44 µM and 16.8 µM; in the experiment on PC-3 prostate, 3.53 µM and 17.6 µM; with LOX IMVI melanoma, 2.41 µM and 15 µM; in the experiment with OVCAR-3 ovarian, 3.16 µM and 8.9 µM; in the experiment on RXF 393 renal, 2.85 µM and 10.9 µM; in the experiment on SN12C renal, 7.49 µM and 17.5 µM. Further, the GI50 in the experiment with MALME-3M melanoma was 20.2 µM and 2.68 µM. The TGI in the experiment with HCC-2998 colon was 12.8 µM and 37 µM; in the experiment with NCI-H226 lung, 31.7 µM and 44.1 µM; in the experiment on SF-295 CNS, 30.2 µM and 38.1 µM; in the experiment with PC-3 prostate, 9.35 µM and 34.3 µM; in the experiment with LOX IMVI melanoma it was 10.8 µM and > 45.9 µM; in the experiment on OVCAR-3 ovarian it was 9.72 µM and 27.7 µM. In addition, the TGI with CCRF-CEM leukemia is more than 40 µM; with RXF 393 renal, 10.6 µM and 37.2 µM; in the experiment on SN12C renal, 15.3 µM and 36.6 µM; with MALME-3M melanoma, 55.8 µM and 8.66 µM.

For the molecule `N#CC12C(=O)N3C(=NC(c4ccccc4)NC3c3ccccc3)C1(C#N)C(c1ccccc1)NC1=C2CCCC1` (stereo not given), the TGI in the experiment on HCC-2998 colon, with NCI-H226 lung, in the experiment with SF-295 CNS, with PC-3 prostate, with LOX IMVI melanoma and in the experiment with OVCAR-3 ovarian was more than 100 µM in each case. For the same molecule, the TGI is 77.8 µM in the experiment with CCRF-CEM leukemia, more than 100 µM in the experiment on RXF 393 renal, more than 100 µM in the experiment on SN12C renal and more than 100 µM in the experiment with MALME-3M melanoma.

As for `O=C1NC2CCCCC2N=C1/C(C(=O)c1ccccc1)=C(\O)c1ccccc1` (stereo not given), the TGI in the experiment on HCC-2998 colon is more than 100 µM; in the experiment with NCI-H226 lung, 46.8 µM; in the experiment with SF-295 CNS it was more than 100 µM; with PC-3 prostate, more than 100 µM; in the experiment on LOX IMVI melanoma it was more than 100 µM; in the experiment with OVCAR-3 ovarian, more than 100 µM. In addition, the TGI in the experiment with CCRF-CEM leukemia was 84.7 µM; in the experiment with RXF 393 renal it was more than 100 µM; in the experiment on SN12C renal, more than 100 µM; in the experiment on MALME-3M melanoma, more than 100 µM.

As for `Cn1c2c(c3ccccc31)CCN1C(=O)C3SC21C1C(=O)N(c2ccccc2)C(=O)C31` (stereo not given), the GI50 in the experiment with HCC-2998 colon is more than 100 µM; with PC-3 prostate, 23.4 µM; in the experiment with CCRF-CEM leukemia, 53.4 µM. In addition, the TGI in the experiment with HCC-2998 colon, in the experiment on NCI-H226 lung, with SF-295 CNS, in the experiment with PC-3 prostate, with LOX IMVI melanoma and in the experiment with OVCAR-3 ovarian was more than 100 µM in each case. Besides, the TGI in the experiment with CCRF-CEM leukemia, with RXF 393 renal, with SN12C renal and with MALME-3M melanoma was more than 100 µM throughout.

`CCCCCn1c(=O)c2c(=O)[nH][nH]c2c2ccccc21`: the TGI with HCC-2998 colon, in the experiment on NCI-H226 lung, in the experiment on SF-295 CNS, with PC-3 prostate, with LOX IMVI melanoma and in the experiment with OVCAR-3 ovarian was more than 100 µM throughout. The TGI in the experiment with CCRF-CEM leukemia, in the experiment with RXF 393 renal, in the experiment on SN12C renal and in the experiment with MALME-3M melanoma was more than 100 µM throughout.

For the molecule `C[C@@H]1CC[C@@H](C)[C@](C)(CCc2ccoc2)C/C=C\C=C/1C(=O)O`, the TGI with HCC-2998 colon, in the experiment with NCI-H226 lung, in the experiment on SF-295 CNS, with PC-3 prostate, in the experiment on LOX IMVI melanoma and in the experiment with OVCAR-3 ovarian was more than 50 µM each time. Besides, the TGI in the experiment on CCRF-CEM leukemia, in the experiment with RXF 393 renal, in the experiment with SN12C renal and in the experiment on MALME-3M melanoma was more than 50 µM throughout.

`CC(=O)CC(C)(C)NC(=O)[C@@]1(O)CC[C@H]2[C@@H]3CCC4=CC(=O)CC[C@@H]4[C@H]3CC[C@@]21C`: the TGI in the experiment with HCC-2998 colon, in the experiment with NCI-H226 lung, in the experiment with SF-295 CNS, in the experiment on PC-3 prostate, in the experiment on LOX IMVI melanoma and in the experiment with OVCAR-3 ovarian was more than 100 µM each time. The TGI in the experiment on CCRF-CEM leukemia, in the experiment on RXF 393 renal, in the experiment with SN12C renal and with MALME-3M melanoma was more than 100 µM throughout.

Consider `[N-]=[N+]=NC[C@H]1OCO[C@H](CN=[N+]=[N-])[C@H]2OCCOCCOc3ccccc3OCCOCCO[C@@H]21`, for which the TGI in the experiment with HCC-2998 colon, with NCI-H226 lung, in the experiment on SF-295 CNS, in the experiment on PC-3 prostate, with LOX IMVI melanoma and with OVCAR-3 ovarian was more than 100 µM each time. In addition, the TGI in the experiment with CCRF-CEM leukemia, in the experiment on RXF 393 renal, in the experiment on SN12C renal and in the experiment with MALME-3M melanoma was more than 100 µM throughout.

For the origin of these results see PubChem BioAssay (NCI).
